Reference: patent publication US20250333733A1, “NOVEL TARGETS AGAINST OVARIAN CANCER” (UNIVERSITY OF PUERTO RICO, priority 2022, published 2025)

Tests used:
OVCAR3CIS cells [1] = test: Colony formation assay after siRNA transfection; type: cell-based; settings: single siRNA, vs NC-siRNA
Experimental: (§1) SiRNA ON-TARGET plus SMARTpool (a mixture of 4 siRNA as a single tube) and a negative control siRNA (NC-siRNA) (Sigma-Aldrich) were used for transfection studies. CASC10, was targeted by using two siRNAs targeting different regions of the CASC10 RNA (e.g., CASC10-siRNA (1) and CASC10-siRNA (2)). OVCAR3CIS or SKOV3ip1CIS cells were seeded into 12-well plates at 3.0×10^4 cells/mL. The next day, siRNAs were mixed with HiPerfect transfection reagent (Qiagen, Valencia, CA) at a 1:2 ratio (SIRNA: HiPerfect) in serum and antibiotic-free Opti-MEM medium (Gibco) and added to the cells. After twenty-four hours the media was replaced by regular culture media, and cells were cultured and used for further experiments. To assess siRNA transfection efficiency, cells were collected 24 hours after siRNA transfection.
OVCAR3CIS cells (3.0×10^4 cells/mL) or SKOV3ip1CIS (3.0×10^4 cells/mL) were seeded into 12-well plates. Twenty-four hours later, cells were transfected with 100 nM (final concentration) of each siRNA. […] Colonies of at least 50 cells were counted using a light microscope (CKX41: Olympus, Center Valley, PA, USA) with a total magnification of 40x. […] Optical density (OD) was measured, and percentages of cell viability were calculated after blank OD subtraction. Untreated cells were assessed as 100% cell viability. […]

OVCAR3CIS cells [2] = test: Matrigel transwell invasion assay; type: cell-based; settings: vs NC-siRNA
Experimental: (§2) Cell invasion was measured using the Matrigel transwell method. OVCAR3CIS (3.0×10^4 cells/mL) or SKOVip1CIS (3.5×10^4 cells/mL) were seeded into 10 cm Petri dishes and transfected with siRNAs. Twenty-four hours later, serum-free matrigel (BD Biosciences CA, USA) was added onto the upper chambers of 24-well plates and incubated at 37° C. for polymerization. Transfected cells were collected and resuspended in serum-free and re-seeded onto the Matrigel-coated chambers. Medium containing 10% FBS was added to the lower area of the wells, and the plates incubated for 48 hours at 37° C. The medium was removed, and cells that invaded through the matrigel fixed and stained using ProtocolHema 3 Stain Set (Fisher Scientific MI, USA). Invaded cells were microscopically counted using a digital camera to capture images at a 20× resolution. The percentage of cell invasion was calculated using the NC-SIRNA condition as 100% cell invasion.

SKOV3IP1CIS [3] = test: Matrigel transwell invasion assay; type: cell-based, human
Experimental: as §2

CASC10 [4] = test: RT-qPCR of CASC10 expression after siRNA transfection in SKOV3ip1 cells; type: cell-based, human; settings: SKOV3ip1 cells as printed
Experimental: as §1
(§3) A custom-made 384-well plate containing pre-designed forward and reverse primers was purchased from Bio-Rad (CA, USA). Total RNA was isolated from OVCAR3 and OVCAR3CIS cells using the GenElute Mammalian Total RNA Mini Kit (Millipore-Sigma, MO, USA) following the manufacturer's instructions. […] Fold-changes and cycle threshold (Ct) values were calculated by the instrument's internal software relative to OVCAR3 cells and normalized to B-actin along with controls for gDNA, PCR reaction, RT reaction, and RNA quality.

SKOV3ip1CIS cells = test: Colony formation assay after siRNA transfection; type: cell-based, human; settings: SKOV3ip1CIS (FIG. 8B)
Experimental: as §1
OVCAR3CIS cells (3.0×10^4 cells/mL) or SKOV3ip1CIS (3.0×10^4 cells/mL) were seeded into 12-well plates. Twenty-four hours later, cells were transfected with 100 nM (final concentration) of each siRNA. […] Colonies of at least 50 cells were counted using a light microscope (CKX41: Olympus, Center Valley, PA, USA) with a total magnification of 40x. […] Optical density (OD) was measured, and percentages of cell viability were calculated after blank OD subtraction. Untreated cells were assessed as 100% cell viability.

CASC10 [5] = test: RT-qPCR of CASC10 expression after siRNA transfection in OVCAR3CIS cells; type: cell-based; settings: vs NC-siRNA
Experimental: as §1, §3

A2780CIS = settings: 72-hr incubation, Alamar Blue, read-out: IC50 cisplatin; cited from earlier work
A2780CP20 = settings: 72-hr incubation, Alamar Blue, read-out: IC50 cisplatin; cited from earlier work
OVCAR3 = settings: 72-hr incubation, Alamar Blue, read-out: IC50 cisplatin; cited from earlier work
OVCAR3CIS cells [6] = test: Cell viability, Alamar blue, siRNA alone or with cisplatin; type: cell-based; settings: CIS 2.5 μM, NC-siRNA-transfected OVCAR3CIS cells
Experimental: OVCAR3CIS cells (3.0×10^4 cells/mL) or SKOV3ip1CIS (3.0×10^4 cells/mL) were seeded into 12-well plates. […] The next day, 400 cells (OVCAR3CIS) or 1,000 cells (SKOV3ip1CIS) were seeded into 6-well plates and incubated for seven days, fixed and stained with 0.5% crystal violet in methanol. Colonies of at least 50 cells were counted using a light microscope (CKX41: Olympus, Center Valley, PA, USA) with a total magnification of 40x. For cell viability assays, OVCAR3 and OVCAR3CIS (3.0×10^4 cells/mL) or SKOV3ip1and SKOV3ip1CIS (3.5×10^4 cells/mL) were seeded into 96-well plates, and 24 hours later, siRNA transfection was performed as described above. The next day, the transfection mix was replaced with cisplatin (CIS) (2.5 uM final concentration dissolved in regular cell culture media) and after forty-eight hours, the medium was removed, and Alamar blue dye (Invitrogen, Thermo Fisher Scientific, Eugene, OR, USA) was added following the manufacturer's instructions. Optical density (OD) was measured, and percentages of cell viability were calculated after blank OD subtraction. Untreated cells were assessed as 100% cell viability.

SKOV3IP1 = settings: 72-hr incubation, Alamar Blue, read-out: IC50 cisplatin; cited from earlier work
OVCAR3CIS = settings: 72-hr incubation, Alamar Blue, read-out: IC50 cisplatin; cited from earlier work
OV90 = settings: 72-hr incubation, Alamar Blue, read-out: IC50 cisplatin; cited from earlier work
OV90CIS = settings: 72-hr incubation, Alamar Blue, read-out: IC50 cisplatin; cited from earlier work
SKOV3IP1CIS [7] = settings: 72-hr incubation, Alamar Blue, read-out: IC50 cisplatin; cited from earlier work

| Compound | reduction in the number of colonies (OVCAR3CIS cells [1]) [%] | reduction of invasiveness (OVCAR3CIS cells [2]) [%] | reduction of invasion ability (SKOV3IP1CIS [3]) [%] | decrease of CASC10 relative expression (CASC10 [4]) [%] | reduction in the number of colonies (SKOV3ip1CIS cells) [%] | decrease of CASC10 expression (CASC10 [5]) [%] | IC50 (A2780CIS) [µM] | IC50 (A2780CP20) [µM] | IC50 (OVCAR3) [µM] | cell viability (OVCAR3CIS cells [6]) | IC50 (SKOV3IP1) [µM] | IC50 (OVCAR3CIS) [µM] | IC50 (OV90) [µM] | IC50 (OV90CIS) [µM] | IC50 (SKOV3IP1CIS [7]) [µM] |
| --- | --- | --- | --- | --- | --- | --- | --- | --- | --- | --- | --- | --- | --- | --- | --- |
| CASC10-siRNA (1): siRNA targeting CASC10 RNA, SEQ ID NO 1 and 2: 5′ GCUAUCUGCUUGAUCCCUU(dT)(dT) 3′ / 5′ AAGGGAUCAAGCAGAUAGO(dT)(dT) 3′ (chain 1 GCUAUCUGCUUGAUCCCUUNN; chain 2 AAGGGAUCAAGCAGAUAGCNN; 3' dTdT overhangs, chemistry not fully specified) | 42 | 42 | 36 | 70 | 81 | 47 |  |  |  |  |  |  |  |  |  |
| N.N.[Cl][Pt][Cl] [cisplatin] |  |  |  |  |  |  | 4.3 | 20 to 30 | 2.8 | reduced the cell viability | 3.9 | 7.5 | 3.5 | 7.8 | 7.3 |
